# Data from PMC10180520, “Phytochemical Analysis and Profiling of Antioxidants and Anticancer Compounds from Tephrosia purpurea (L.) subsp. apollinea Family Fabaceae” (Molecules, 2023).
# Tests used:
# [1] = DPPH radical scavenging assay; type: biochemical
# Procedure: Each methanolic extract concentration (1 mL) was added to 3 mL of 0.1 mM DPPH solubilized in methanol, followed by shaking and placing it into a dark chamber for 30 min. When DPPH reacts with an H-donating antioxidant, it is scavenged, thereby resulting in a decrease in absorbance. The optical density of each concentration was measured at 517 nm in a UV-Vis spectrophotometer. Ascorbic acid was used as an antioxidant standard. All the values were measured in triplicate.
# PC3 = assay: Light microscopy of treated cells, PC3; type: cell-based; details: PC3, 250 µg/mL (Figure 8)
# Source text: (§1) Morphologies of cells treated with the various methanol T. purpurea subsp. apollinea extract concentrations were investigated under light microscopy at 10× objective lens, total magnification = 100×.
# [2] = tested on: breast ductal carcinoma (T47D); assay: MTT assay, breast ductal carcinoma (T47D); type: cell-based
# Procedure: (§2) Breast cancer cell lines (MCF7), osteosarcoma (MG63), breast ductal carcinoma (T47D), leukemia (U937), as well as HeLa, PC3, and healthy pulmonary fibroblast were supplied by the tissue culture laboratory at Vacsera, Egypt. The culturing procedure was maintained sterile, utilizing a laminar airflow cabinet. The cells were cultured in Roswell Park Memorial Institute medium (RPMI 1640). The medium was provided with antibiotics (streptomycin and penicillin) as well as antifungal agents (amphotericin B) and L-glutamine. It was also supplemented with 10% heat-inactivated fetal bovine serum.
# (§3) Cell viability was measured using a 3-(4,5-dimethylthiazol-2-yl)-2,5-diphenyl-2H-tetrazolium bromide (MTT) assay. The principle of the MTT assay is that through mitochondrial reduction, purple-colored crystals are produced from the yellowish MTT [80]. […]
# (§4) Using a growth medium, serial dilutions of the dimethyl sulfoxide (DMSO)-solubilized extract were produced at concentrations of 31.25, 62.5, 125, 250, 500, and 1000 µg/mL [80]. […] A microplate reader was used to measure the optical density of the formazan solution at 560 nm, with values corrected using a background reference λ of 620 nm. […]
# (§5) The IC50 profiles of methanol extract of T. purpurea subsp. apollinea and a positive control for cancer and healthy cell lines were determined with GraphPad Prism version 7 (GraphPad Software Inc., San Diego, CA, USA). […]
# [3] = tested on: normal human fetal lung fibroblast (WI38); assay: MTT assay, normal human fetal lung fibroblast (WI38); type: cell-based; details: WI-38, WI38 normal cells, 24 h
# Procedure: as §2, §3, §4, §5
# MCF7 = assay: Light microscopy of treated cells, MCF7; type: cell-based; details: MCF7, 250 µg/mL (Figure 8)
# Source text: as §1
# leukemia (U937) = assay: MTT assay, leukemia (U937); type: cell-based
# Procedure: as §2, §3, §4, §5
# prostate cancer (PC3) = assay: MTT assay, prostate cancer (PC3); type: cell-based
# Procedure: as §2, §3, §4, §5
# HeLa = assay: Light microscopy of treated cells, HeLa; type: cell-based; details: 250 µg/mL (Figure 8)
# Source text: as §1
# breast cancer (MCF7) = assay: MTT assay, breast cancer (MCF7); type: cell-based
# Procedure: as §2, §3, §4, §5
# cervical cancer (HeLa) = assay: MTT assay, cervical cancer (HeLa); type: cell-based
# Procedure: as §2, §3, §4, §5
# T47D = assay: Light microscopy of treated cells, T47D; type: cell-based; details: 250 µg/mL (Figure 8)
# Source text: as §1
# osteosarcoma (MG63) = assay: MTT assay, osteosarcoma (MG63); type: cell-based
# Procedure: as §2, §3, §4, §5
# MG63 = assay: Light microscopy of treated cells, MG63; type: cell-based; details: MG63, 250 µg/mL (Figure 8)
# Source text: as §1
# [4] = ABTS radical scavenging assay; type: biochemical
# Procedure: Distilled water was used to bring up a 50-mL volumetric flask to mark after dissolving 192 mg of 2,2′-azino-bis(3-ethylbenzothiazoline-6-sulfonic acid) (ABTS) in a small volume of water and transferring it to the flask, followed by addition of 1 mL of this solution to 17 μL 0.14 M K2S2O8, and incubation in darkness for 24 h. To prepare the final ABTS dilution for the T. purpurea subsp. apollinea extract, 1 mL of reaction mixture was added to 49 mL of methanol. Then, 0.190 mL of newly made ABTS solution was mixed with 0.010 mL of plant extract in a 96-well plate and kept in the dark for 30 min. Thereafter, a decrease in ABTS OD was read at 734 nm in a FluoStar Omega microplate reader. Trolox was used as an antioxidant standard. All the values were measured in triplicate.
smiles,measurement,setting,value
"O=C1O[C@H]([C@@H](O)CO)C(O)=C1O [Ascorbic Acid, Ascorbic acid]",DPPH Scavenging%,[1]; Conc. 1.95 µg/mL,41.8 ± 0.5%
same,DPPH Scavenging%,[1]; Conc. 3.9 µg/mL,45.9 ± 0.1%
same,DPPH Scavenging%,[1]; Conc. 7.8125 µg/mL,56.2 ± 0.2%
same,DPPH Scavenging%,[1]; Conc. 15.625 µg/mL,64.2 ± 0.3%
same,DPPH Scavenging%,[1]; Conc. 31.25 µg/mL,71.2 ± 0.2%
same,DPPH Scavenging%,[1]; Conc. 62.5 µg/mL,77.9 ± 0.3%
same,DPPH Scavenging%,[1]; Conc. 125 µg/mL,86.4 ± 0.3%
same,DPPH Scavenging%,[1]; Conc. 250 µg/mL,92.7 ± 0.2%
same,DPPH Scavenging%,[1]; Conc. 500 µg/mL,94.5 ± 0.2%
same,DPPH Scavenging%,[1]; Conc. 1000 µg/mL,97.1 ± 0.1%
same,IC50 of DPPH radical scavenging,[1]; mean ± standard deviation,^a IC50 = 4.8 ± 0.1 μg/mL
COc1cccc2c1C(=O)c1c(O)c3c(c(O)c1C2=O)C[C@@](O)(C(=O)CO)C[C@@H]3O[C@H]1C[C@H](N)[C@H](O)[C@H](C)O1 [Doxorubicin],cell morphology,PC3,rounded and shrunk cells
same,IC50,"[2]; Homo sapiens, T47D, MTT, 24 h",7 ± 0.1 µg/mL
same,SI (selectivity index),[2]; IC50 for WI38 / IC50 for T47D,2.8
same,IC50,[3],20.1 ± 0.1 µg/mL
same,cell morphology,MCF7,rounded and shrunk cells
same,IC50,"leukemia (U937); Homo sapiens, U-937, U937, MTT, 24 h",41.7 ± 0.9 µg/mL
same,SI (selectivity index),leukemia (U937); IC50 for WI38 / IC50 for U937,0.4
same,SI (selectivity index),prostate cancer (PC3); IC50 for WI38 / IC50 for PC3,0.4
same,IC50,"prostate cancer (PC3); PC3, MTT, 24 h",46.3 ± 0.2 µg/mL
same,cell morphology,HeLa,rounded and shrunk cells
same,SI (selectivity index),breast cancer (MCF7); IC50 for WI38 / IC50 for MCF7,0.5
same,IC50,"breast cancer (MCF7); MCF7, MTT, 24 h",37.4 ± 0.1 µg/mL
same,IC50,"cervical cancer (HeLa); Homo sapiens, HeLa, MTT, 24 h",41.9 ± 0.1 µg/mL
same,SI (selectivity index),cervical cancer (HeLa); IC50 for WI38 / IC50 for HeLa,0.4
same,cell morphology,T47D,rounded and shrunk cells
same,IC50,"osteosarcoma (MG63); Homo sapiens, MG-63, MG63, MTT, 24 h",19 ± 0.3 µg/mL
same,SI (selectivity index),osteosarcoma (MG63); IC50 for WI38 / IC50 for MG63,1.0
same,cell morphology,MG63,rounded and shrunk cells
Cc1c(C)c2c(c(C)c1O)CCC(C)(C(=O)O)O2 (centres unmarked) [Trolox],ABTS Scavenging%,[4]; Conc. 0.6 µg/mL,9.9 ± 0.3%
same,ABTS Scavenging%,[4]; Conc. 1.3 µg/mL,18.6 ± 0.4%
same,ABTS Scavenging%,[4]; Conc. 3.8 µg/mL,49.6 ± 2.6%
same,ABTS Scavenging%,[4]; Conc. 6.2 µg/mL,83.6 ± 1.9%
same,ABTS Scavenging%,[4]; Conc. 8.8 µg/mL,92.6 ± 0.2%
same,IC50 of ABTS radical scavenging,[4]; mean ± standard deviation,^a IC50 = 2.9 ± 0.1 μg/mL
